Measured values as given in US20080234188A1, “Antimicrobial Peptides” (The Hospital for Sick Children, priority 2001, published 2008).
≈ marks a conversion by molar mass, not a printed value. Where a SMILES comes first, the peptide text is derived from it.

Key:
[1] = system: C498: E. coli, wild type strain; type: cell-based; settings: for MIC C498: wild type strain; for MIC C498 (active/inactive): Table 2, class symbols
Source text: (§1) The bacterial strains used were E. coli C498, E. coli C500, Escherichia coli UB1005 and its antibiotic supersusceptible derivative DC2 (22); a clinical isolate of Staphylococcus epidermidis (C621); coryneform bacterial strain Corynebacterium xerosis (C875); and E. coli ATCC 25922, Staphylococcus aureus ATCC 25923, Enterococcus faecalis ATCC 29212, Bacillus subtilis ATCC 6633 and Pseudomonas aeruginosa ATCC 27853, all from American Type Culture Collection.
(§2) Peptide antibacterial activity was assessed by the method of R. Hancock et al. (Wu & Hancock (1999), J. Biol. Chem., v. 274, pp. 29-35). Test strains of bacteria from Mueller Hinton agar (MHA) plates were inoculated into 5 ml Mueller Hinton Broth (MHB) in tubes and grown overnight at 37° C. on a shaker (180 rpm). Serial dilutions of test peptides (at 10 times the required test concentrations) were made in 0.01% acetic acid, 0.2% BSA, in polypropylene or coated glass tubes as follows: the test peptide was (a) dissolved in distilled water at 20 times the required maximum concentration (enough final volume for all tests to be performed on a given day); (b) diluted into an equal volume of 0.02% acetic acid, 0.4% BSA to give 10 times the required maximum concentration; (c) serial doubling dilutions were performed in 0.01% acetic acid, 0.2% BSA to provide serial dilutions of peptides at 10 times the required test concentrations, e.g., 640, 320, 160, . . . 2.5 μg/ml. (No deleterious effects of long-term storage of peptides in these media have been detected). Overnight bacterial cultures were diluted in MHB to give 2−7×10^5 colony forming units/ml. Bacterial suspension (100 μl) was dispensed in each well; controls without bacteria were maintained in parallel. To each well was added 11 μl of 10× test peptide and plates were incubated at 37° C. for 18-24 hours, and checked again at 40-48 hours. Plates were read visually and at 600 nm in a microplate reader (Molecular Devices).
(§3) were synthesized. The antibacterial activity of these peptides was determined against both Gram-positive bacteria ([…], Corynebacterium xerosis) and Gram-negative bacteria (various strains of E. coli). The results are shown in Table 2, along with the average hydrophobicity of each peptide, calculated as described herein.

[2] = system: C500: E. coli, antibiotic strain; type: cell-based; settings: for MIC C500: antibiotic strain; for MIC C500 (active/inactive): Table 2, class symbols
Source text: as §1, §2, §3

[3] = system: Corynebacterium xerosis (C875); type: cell-based; settings: for MIC C875 (active/inactive): Table 2, class symbols
Source text: as §1, §2, §3
(§4) A further number of the peptides of the invention were tested for antimicrobial activity against a range of Gram-positive and Gram-negative bacteria by the assay described immediately before Example 1.

[4] = system: Staphylococcus epidermidis (C621); type: cell-based; settings: for MIC C621 (active/inactive): Table 2, class symbols
Source text: as §1, §2, §3, §4

E. coli DC2 = test: Assay of antibacterial activity (MIC), E. coli DC2; type: cell-based, Escherichia coli; settings: Table 3; Gram-negative
Source text: as §1, §2, §4

E. coli UB1005 = type: cell-based, Escherichia coli; settings: UB1005
Source text: as §1, §2, §4

[5] = Hydrophobicity (hydropathy) from reverse-phase HPLC retention scale; type: physicochemical; design: key to Average Hydrophobicity of Core Sequence / Mean Core segment Hydrophobicity: arithmetic average of Table 1 hydropathy values of constituent residues; key to Hydropathy: hydropathy scale from HPLC retention times of model peptides (Table 1); settings: for Mean residue hydropathy of X-residue peptide / Hydropathy: Table 1; for Hydropathy: of the X-residue, from HPLC retention of KKAAAXAAAAAXAAWAAXAAAKKKK-amide peptides; for Average Hydrophobicity of Core Sequence: Table 2, calculated from Table 1 hydropathy values; for Mean Core segment Hydrophobicity: Table 3
Source text: The “hydrophobicity value” of an amino acid residue means the hydrophobicity value of that residue as shown in Table 1 or as calculated by the method described herein.
The “hydrophobicity value” of an amino acid sequence or peptide means the arithmetic average of the individual hydrophobicity values of the constituent amino acid residues of the sequence.
Various hydrophobicity scales for proteins and amino acids have been described in the literature but the inventors have established the hydrophobicity scale of Table 1 based on the retention times on HPLC of a series of hydrophobic model peptides, as described in Liu and Deber (1998), Biopolymers (Peptide Science), v. 47, pp. 41-62).
The hydrophobicity value shown for each amino acid in Table 1 as “hydropathy” may be used as the hydrophobicity value for that amino acid in any peptide whose hydrophobicity value has to be calculated. The “average hydrophobicity” of a peptide containing amino acids shown in Table 1 is calculated by determining the arithmetic average of the Table 1 “hydropathy” values for the constituent amino acids of the sequence.
Peptides in accordance with the invention may also include other amino acids. For an amino acid not included in Table 1, the hydrophobicity value may be determined by the same method as described herein for obtaining the values of Table 1. For example, a peptide such as KKAAAXAAAAAXAAXAAXAAAKKKK-amide (Sequence ID No: 1) may be synthesized, where X is the amino acid whose hydrophobicity value is to be determined, and the retention time of the peptide on HPLC is determined, as described in the Examples. Similar peptides where X is Lys or Phe are also prepared and their HPLC retention times determined. The retention time, Rx, is converted to the hydropathy value H for the selected amino acid using the equation
H=(10×ΔtRx-Lys/ΔtRPhe-Lys)−5.00
where ΔtRx-Lys=retention time difference in minutes between Rx and the retention time of the most hydrophilic peptide tested (X=Lys) and where ΔtRPhe-Lys=retention time difference in minutes between the most hydrophobic peptide tested (X=Phe) and the most hydrophilic (X=Lys).
The retention time of each peptide was determined on a C4 reversed-phase column (4.6×250 mm, 300 A pore size, 10 μ particle size). Equal amounts of each peptide were injected into the column and eluted at a flow rate of 1 mL/min, utilizing a linear AB gradient (2% B/min), where buffer A was 0.1% TFA/ddH2O, and buffer B was 0.1% TFA/acetonitrile. The retention time of each peptide reported here was the average of triplicate measurements.

CC(C)C[C@H](NC(=O)[C@H](C)NC(=O)[C@H](C)NC(=O)[C@H](C)NC(=O)[C@H](CCCCN)NC(=O)[C@@H](N)CCCCN)C(=O)N[C@@H](C)C(=O)N[C@@H](C)C(=O)N[C@@H](C)C(=O)N[C@@H](C)C(=O)N[C@@H](C)C(=O)N[C@@H](CC(C)C)C(=O)N[C@@H](C)C(=O)N[C@@H](C)C(=O)N[C@@H](Cc1c[nH]c2ccccc12)C(=O)N[C@@H](C)C(=O)N[C@@H](C)C(=O)N[C@@H](CC(C)C)C(=O)N[C@@H](C)C(=O)N[C@@H](C)C(=O)N[C@@H](C)C(=O)N[C@@H](CCCCN)C(=O)N[C@@H](CCCCN)C(=O)N[C@@H](CCCCN)C(=O)N[C@@H](CCCCN)C(N)=O [Peptide L25] (H-KKAAALAAAAALAAWAALAAAKKKK-NH2; N-terminus assumed)
MIC C498 [1]: 6 µM (≈ 14.3 µg/mL)
MIC C500 [2]: 6 µM (≈ 14.3 µg/mL)
MIC C875 [3]: 0.2 µM (≈ 0.476 µg/mL)
MIC C. xerosis C875 [3]: <0.25 µM
MIC C621 [4]: 1.5 µM (≈ 3.57 µg/mL)
MIC S. epidermidis C621 [4]: 2 µM (≈ 4.76 µg/mL)
MIC E. coli DC2 (E. coli DC2): 16 µM (≈ 38 µg/mL)
MIC E. coli UB1005 (E. coli UB1005): 32 µM (≈ 76.1 µg/mL)
Mean residue hydropathy of X-residue peptide [5]: 1.14
Hydropathy [5]: 4.76
Average Hydrophobicity of Core Sequence [5]: 1.14
Mean Core segment Hydrophobicity [5]: 1.14

C[C@H](NC(=O)[C@H](C)NC(=O)[C@H](C)NC(=O)[C@H](Cc1ccc(O)cc1)NC(=O)[C@H](C)NC(=O)[C@H](C)NC(=O)[C@H](C)NC(=O)[C@H](CCCCN)NC(=O)[C@@H](N)CCCCN)C(=O)N[C@@H](C)C(=O)N[C@@H](C)C(=O)N[C@@H](Cc1ccc(O)cc1)C(=O)N[C@@H](C)C(=O)N[C@@H](C)C(=O)N[C@@H](Cc1c[nH]c2ccccc12)C(=O)N[C@@H](C)C(=O)N[C@@H](C)C(=O)N[C@@H](Cc1ccc(O)cc1)C(=O)N[C@@H](C)C(=O)N[C@@H](C)C(=O)N[C@@H](C)C(=O)N[C@@H](CCCCN)C(=O)N[C@@H](CCCCN)C(=O)N[C@@H](CCCCN)C(=O)N[C@@H](CCCCN)C(N)=O [Peptide Y25] (H-KKAAAYAAAAAYAAWAAYAAAKKKK-NH2; N-terminus assumed)
MIC C498 [1]: 11 µM (≈ 27.8 µg/mL)
MIC C500 [2]: 5 µM (≈ 12.6 µg/mL)
MIC C875 [3]: 0.2 µM (≈ 0.506 µg/mL)
MIC C. xerosis C875 [3]: <0.25 µM
MIC C621 [4]: 3 µM (≈ 7.58 µg/mL)
MIC S. epidermidis C621 [4]: 8 µM (≈ 20.2 µg/mL)
MIC E. coli DC2 (E. coli DC2): 16 µM (≈ 40.4 µg/mL)
MIC E. coli UB1005 (E. coli UB1005): 32 µM (≈ 80.9 µg/mL)
Mean residue hydropathy of X-residue peptide [5]: 0.71
Hydropathy [5]: 2.00
Average Hydrophobicity of Core Sequence [5]: 0.71
Mean Core segment Hydrophobicity [5]: 0.71

CC(C)C[C@H](NC(=O)[C@H](C)NC(=O)[C@H](C)NC(=O)[C@H](C)NC(=O)[C@H](CCCCN)NC(=O)[C@@H](N)CCCCN)C(=O)N[C@@H](C)C(=O)N[C@@H](C)C(=O)N[C@@H](C)C(=O)N[C@@H](C)C(=O)N[C@@H](C)C(=O)N[C@@H](CS)C(=O)N[C@@H](C)C(=O)N[C@@H](C)C(=O)N[C@@H](Cc1c[nH]c2ccccc12)C(=O)N[C@@H](C)C(=O)N[C@@H](C)C(=O)N[C@@H](CC(C)C)C(=O)N[C@@H](C)C(=O)N[C@@H](C)C(=O)N[C@@H](C)C(=O)N[C@@H](CCCCN)C(=O)N[C@@H](CCCCN)C(=O)N[C@@H](CCCCN)C(=O)N[C@@H](CCCCN)C(N)=O [[C25]] (H-KKAAALAAAAACAAWAALAAAKKKK-NH2; N-terminus assumed)
MIC C498 (active/inactive) [1]: +
MIC C500 (active/inactive) [2]: +
MIC C. xerosis C875 [3]: 1 µM (≈ 2.37 µg/mL)
MIC C875 (active/inactive) [3]: +
MIC S. epidermidis C621 [4]: >32 µM
MIC C621 (active/inactive) [4]: +
MIC E. coli DC2 (E. coli DC2): 8 µM (≈ 18.9 µg/mL)
MIC E. coli UB1005 (E. coli UB1005): 16 µM (≈ 37.9 µg/mL)
Mean residue hydropathy of X-residue peptide [5]: 0.78
Hydropathy [5]: 2.49
Average Hydrophobicity of Core Sequence [5]: 1.02
Mean Core segment Hydrophobicity [5]: 1.02

CSCC[C@H](NC(=O)[C@H](C)NC(=O)[C@H](C)NC(=O)[C@H](C)NC(=O)[C@H](CCCCN)NC(=O)[C@@H](N)CCCCN)C(=O)N[C@@H](C)C(=O)N[C@@H](C)C(=O)N[C@@H](C)C(=O)N[C@@H](C)C(=O)N[C@@H](C)C(=O)N[C@@H](CCSC)C(=O)N[C@@H](C)C(=O)N[C@@H](C)C(=O)N[C@@H](Cc1c[nH]c2ccccc12)C(=O)N[C@@H](C)C(=O)N[C@@H](C)C(=O)N[C@@H](CCSC)C(=O)N[C@@H](C)C(=O)N[C@@H](C)C(=O)N[C@@H](C)C(=O)N[C@@H](CCCCN)C(=O)N[C@@H](CCCCN)C(=O)N[C@@H](CCCCN)C(=O)N[C@@H](CCCCN)C(N)=O [[M25]] (H-KKAAAMAAAAAMAAWAAMAAAKKKK-NH2; N-terminus assumed)
MIC C498 (active/inactive) [1]: +
MIC C500 (active/inactive) [2]: +
MIC C. xerosis C875 [3]: 0.5 µM (≈ 1.22 µg/mL)
MIC C875 (active/inactive) [3]: +
MIC S. epidermidis C621 [4]: 16 µM (≈ 38.9 µg/mL)
MIC C621 (active/inactive) [4]: +
MIC E. coli DC2 (E. coli DC2): 32 µM (≈ 77.8 µg/mL)
MIC E. coli UB1005 (E. coli UB1005): >32 µM
Mean residue hydropathy of X-residue peptide [5]: 0.90
Hydropathy [5]: 3.23
Average Hydrophobicity of Core Sequence [5]: 0.89
Mean Core segment Hydrophobicity [5]: 0.90
